The target of test [1] is S. aureus methionyl-tRNA synthetase (MRS) (Staphylococcus aureus, UniProt Q5HII6). As to the kind of experiment: t-RNA synthetase biochemical assay (MRS). Particulars: average of two replicates with s.d.
The subject of test [2] is S. aureus WCUH29 wild type. The experiment in a line: MIC broth microdilution. The note with it: for MIC: Staphylococcus aureus, WCUH29WILDTYPE
In kind it is cell-based, Staphylococcus aureus. (In general: Dilution methods test growth across graded concentrations, often in twofold steps.)

The subject of test [3] is S. aureus RN4220 (pYH4) and RN4220 (pYH4-MRS). As to the kind of experiment: MoA study: MIC in MRS overexpressor strain. In kind it is cell-based, Staphylococcus aureus. The note with it: for MIC: Staphylococcus aureus.
In test [4] the target is S. aureus isoleucyl-tRNA synthetase (IRS) (Staphylococcus aureus, UniProt P41972). As to the kind of experiment: t-RNA synthetase biochemical assay (IRS). The note with it: average of two replicates with s.d.
Sequence of S. aureus isoleucyl-tRNA synthetase (IRS) (P41972 whole entry): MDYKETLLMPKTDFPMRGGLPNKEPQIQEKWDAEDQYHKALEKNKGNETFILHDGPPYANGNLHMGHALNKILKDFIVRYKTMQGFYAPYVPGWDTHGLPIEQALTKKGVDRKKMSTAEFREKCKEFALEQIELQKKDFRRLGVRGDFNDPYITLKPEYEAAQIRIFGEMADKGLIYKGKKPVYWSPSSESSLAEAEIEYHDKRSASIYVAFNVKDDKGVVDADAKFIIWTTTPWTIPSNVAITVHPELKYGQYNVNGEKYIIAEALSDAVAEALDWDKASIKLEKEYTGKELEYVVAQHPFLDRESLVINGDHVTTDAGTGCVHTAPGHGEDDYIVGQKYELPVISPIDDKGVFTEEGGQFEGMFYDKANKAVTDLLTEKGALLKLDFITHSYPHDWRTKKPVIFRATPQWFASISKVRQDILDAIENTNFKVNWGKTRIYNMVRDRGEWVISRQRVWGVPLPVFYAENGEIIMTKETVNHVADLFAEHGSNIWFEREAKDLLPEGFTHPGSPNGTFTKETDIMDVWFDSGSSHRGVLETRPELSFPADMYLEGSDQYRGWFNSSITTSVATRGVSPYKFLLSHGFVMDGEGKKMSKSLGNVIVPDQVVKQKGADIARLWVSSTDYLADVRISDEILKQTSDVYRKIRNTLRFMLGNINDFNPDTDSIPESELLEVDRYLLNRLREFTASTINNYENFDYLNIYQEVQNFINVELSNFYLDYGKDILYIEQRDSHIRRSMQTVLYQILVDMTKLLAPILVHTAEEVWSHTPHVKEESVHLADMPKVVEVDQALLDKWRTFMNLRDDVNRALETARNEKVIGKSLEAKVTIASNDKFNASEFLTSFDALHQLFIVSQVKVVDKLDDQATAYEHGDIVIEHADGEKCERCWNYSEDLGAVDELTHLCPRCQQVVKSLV
Test [5] concerns the target S. aureus methionine aminopeptidase, MetAP (Staphylococcus aureus, UniProt P0A078). The experiment in a line: MetAP biochemical assay (fluorescence intensity coupled). The note with it: average of two replicates with s.d. The text has this: (§1) 368 Both the S. aureus and A. baumannii UppS in vitro biochemical assay use a pyrophosphatase and Biomol
(§2) 369 Green Phosphate detection reagent to assess catalytic activity. These assays were based on previously
(§3) 370 described assays both within GSK and others11-13. Briefly, the enzyme will add up to 8 isopentyl
(§4) 371 pyrophosphate (IPP) units onto a farnesyl pyrophosphate FPP molecule, resulting in the production of 8
(§5) 372 moles of inorganic pyrophosphates per mole of substrate added. The pyrophosphate is then converted
(§6) 373 to inorganic phosphate by a pyrophosphatase, and this phosphate is detected by Biomol Green. The
(§7) 374 assay is conducted in buffer containing 100 mM Trizma pH7.5, 1 mM MgCl2, 6 mM CHAPS and 0.005% […]
(§8) 378 10 μL. The detection reagent was incubated for 20 min and 610-620 nm light was monitored by a Perkin
(§9) 379 Elmer Envision plate reader. […]
(§10) 383 Standard deviation values were calculated using the n-1 method. […]
(§11) 388 A fluorescence intensity coupled assay was used to measure the in vitro biochemical activity of S. aureus […]
(§12) 391 enzyme then digests the liberated peptide GFGF-AFC releasing the AFC causing a fluorescence increase
(§13) 392 monitored by an Envision plate reader. […]
(§14) 395 90 minute incubation with quench/detection solution, plates were read on an envision plate reader with […]
(§15) 406 A fluorescence intensity coupled assay was used to measure the in vitro biochemical activity of M. […]

For test [6], the system named is Pseudomonas aeruginosa PA0322 Δ(mexAB-oprM) Δ(mexCD-oprJ) Δ(mexEF-oprN). As to the kind of experiment: MIC broth microdilution. In kind it is cell-based.
Test [7] relates to Haemophilus influenzae H128 ΔacrB. The experiment in a line: MIC broth microdilution. In kind it is cell-based.
The next test has as its target A. baumannii UppS (Acinetobacter baumannii, UniProt V5VCK8). The experiment in a line: UppS biochemical assay (pyrophosphatase / Biomol Green). Particulars: average of two replicates with s.d.
Description: as §1, §2, §3, §4, §5, §6, §7, §8, §9, §10, §11, §12, §13, §14, §15

Test [8] has as its system Acinetobacter baumannii BM4652 ΔadeABC ΔadeIJK (efflux mutant). As to the kind of experiment: MIC broth microdilution. In kind it is cell-based.
The subject of test [9] is Escherichia coli 7623 ΔtolC. As to the kind of experiment: MIC broth microdilution. In kind it is cell-based.
Test [10] concerns Acinetobacter baumannii ATCC 19606-1 ΔLpxC. The experiment in a line: MIC broth microdilution. In kind it is cell-based. The note with it: ATCC19606.
Test [11] concerns Klebsiella pneumoniae 1161486a ΔtolC. The experiment in a line: MIC broth microdilution. In kind it is cell-based.
Test [12] concerns A. baumannii BM4652 efflux mutant, pRK415 and pRK415-UppS. As to the kind of experiment: microbe, parasite or virus in culture. In kind it is cell-based, Acinetobacter baumannii.
[13] abbreviates: S. aureus WCUH29 wild type, read-out: MIC.

≈ marks a conversion by molar mass, not a printed value. Entries after “also recorded” stand apart in the source; their conditions may differ. Like-named read-outs stand apart in the source and are kept apart here.

The record followed here is article PMC5520047, “Prioritizing multiple therapeutic targets in parallel using automated DNA-encoded library screening” (Nature Communications, 2017).

Sequence of S. aureus methionine aminopeptidase, MetAP (P0A078 whole entry): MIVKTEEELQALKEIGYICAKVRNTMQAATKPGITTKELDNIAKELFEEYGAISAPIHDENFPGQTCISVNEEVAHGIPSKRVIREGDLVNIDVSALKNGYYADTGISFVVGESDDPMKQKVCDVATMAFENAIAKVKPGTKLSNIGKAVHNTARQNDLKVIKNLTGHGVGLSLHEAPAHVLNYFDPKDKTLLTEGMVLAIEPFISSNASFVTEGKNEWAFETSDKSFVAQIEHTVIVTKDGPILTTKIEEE
Sequence of S. aureus methionyl-tRNA synthetase (MRS) (Q5HII6 whole entry): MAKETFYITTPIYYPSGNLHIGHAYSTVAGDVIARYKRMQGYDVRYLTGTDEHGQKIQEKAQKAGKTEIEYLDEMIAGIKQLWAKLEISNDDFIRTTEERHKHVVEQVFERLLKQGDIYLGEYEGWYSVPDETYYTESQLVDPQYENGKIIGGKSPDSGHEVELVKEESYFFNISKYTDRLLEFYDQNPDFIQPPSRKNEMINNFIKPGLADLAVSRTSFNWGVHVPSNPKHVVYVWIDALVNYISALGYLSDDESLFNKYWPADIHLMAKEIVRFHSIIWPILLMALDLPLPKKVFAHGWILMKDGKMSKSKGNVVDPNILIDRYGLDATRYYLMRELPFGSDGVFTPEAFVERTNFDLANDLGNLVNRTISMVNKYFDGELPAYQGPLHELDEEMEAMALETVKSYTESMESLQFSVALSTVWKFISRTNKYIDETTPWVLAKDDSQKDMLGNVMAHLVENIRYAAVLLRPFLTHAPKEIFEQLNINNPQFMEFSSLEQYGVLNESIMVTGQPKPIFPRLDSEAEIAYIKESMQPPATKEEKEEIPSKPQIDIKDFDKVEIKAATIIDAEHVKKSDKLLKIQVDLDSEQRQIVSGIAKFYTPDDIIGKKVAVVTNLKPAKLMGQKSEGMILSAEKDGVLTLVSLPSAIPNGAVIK
Sequence of A. baumannii UppS (V5VCK8 entry or part of it): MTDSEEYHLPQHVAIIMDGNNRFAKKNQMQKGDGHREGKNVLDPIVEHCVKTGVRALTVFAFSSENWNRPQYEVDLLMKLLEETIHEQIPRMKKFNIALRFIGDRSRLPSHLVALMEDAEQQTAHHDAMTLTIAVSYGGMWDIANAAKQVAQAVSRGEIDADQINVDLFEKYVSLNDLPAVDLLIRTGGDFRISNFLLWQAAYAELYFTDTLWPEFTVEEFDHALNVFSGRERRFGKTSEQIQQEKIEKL

In general, IC50 refers to the concentration that inhibits the measured activity by half. Lower therefore signals higher potency. As to `CNC(=O)c1ccc2c(c1)nc(-c1ccc(Br)c(O)c1)n2C(CNC(=O)COc1ccccc1C(C)(C)C)c1ccc(OC)c(OC)c1` (stereo not shown) [Compound 1], the IC50 in [1] came to 0.83 ± 0.05 nM. The MIC in [2] (setting [13]) is 0.5 µg/mL (≈ 0.699 µM); in test [3] (S. aureus RN4220 pYH4-MRS (induced with 0.1 µg/ml anhydrotetracycline)), 64 µg/mL (≈ 89.4 µM); in test [3] (S. aureus RN4220 pYH4-MRS overexpressor (uninduced)), 4 µg/mL (≈ 5.59 µM); in test [3] (S. aureus RN4220 pYH4 vector alone), 0.5 µg/mL (≈ 0.699 µM). For the same molecule, the MIC increase is greater than 128 fold in test [3] (MRS overexpressor induced with 0.1 μg ml^−1 anhydrotetracycline vs vector control strain) and 8 fold in [3] (MRS overexpressor uninduced vs vector control strain).
Turning to `CNC(=O)c1cccc(CNCc2cc(C(=O)N3CCN(c4cc(Cl)cc(Cl)c4)CC3)cc(C(C)(C)C)c2)c1` [Compound 2], the MIC in [2] (setting [13]) was found to be 4 µg/mL (≈ 7.05 µM). Moreover, half-maximal inhibition in test [4] (IC50) required 750 ± 210 nM.
Consider `Cc1nnc(Cn2c(C(C)Cc3ccc4c(c3)OCO4)nc3cccc(Cl)c32)[nH]1` (stereo not shown) [Compound 3], for which the IC50 in test [5] was found to be 350 ± 10 nM. Further, in test [2] (S. aureus), the antibacterial activity entry was “lacked S. aureus antibacterial activity; also recorded: lacks antibacterial activity”. For the same molecule, the MIC in test [2] (setting [13]) is greater than 128 µg/mL.
Turning to `CNC(=O)[C@@H](NC(=O)c1cc(Cl)c(Cl)cc1C(=O)NCc1ccc(C(C)(C)C)cc1)C(C)(C)C` [Compound 5], the MIC in test [6] was greater than 128 µg/mL; in test [7], 1 µg/mL (≈ 1.97 µM); in test [2], greater than 128 µg/mL; in test [8] (A. baumannii BM652 efflux strain), greater than 128 µg/mL; in [8] (A. baumannii BM4652 ΔadeABC ΔadeIJK efflux mutant), greater than 128 µg/mL; in test [9], greater than 128 µg/mL. The MIC in test [10] was less than 0.125 µg/mL; in test [11], greater than 128 µg/mL; in test [12] (A. baumannii BM4652 efflux mutant + pRK415-UppS, 30 μg/ml polymyxin B nonapeptide), 2 µg/mL; in [12] (A. baumannii BM4652 efflux mutant + pRK415, 30 μg/ml polymyxin B nonapeptide), 0.25 µg/mL; in [12] (Acinetobacter baumannii, A. baumannii BM4652 efflux mutant + pRK415-UppS, 30 μg/ml polymyxin B nonapeptide), 2 µg/mL; in [12] (Acinetobacter baumannii, A. baumannii BM4652 efflux mutant + pRK415, 30 μg/ml polymyxin B nonapeptide), 0.25 µg/mL. For the same molecule, the MIC was 0.25 µg/mL in [12] (Acinetobacter baumannii, A. baumannii BM4652 efflux mutant, N/A (no plasmid), 30 μg/ml polymyxin B nonapeptide) and greater than 128 µg/mL in test [12] (Acinetobacter baumannii, without the permeabilising agent). For the same molecule, half-maximal inhibition at A. baumannii UppS (IC50) was put at 43 ± 25 nM. Further, the “Fold MIC increase” value in test [12] (pRK415-UppS overexpressing strain relative to parent strain, 30 μg/ml polymyxin B nonapeptide) is 8 fold.
